What was measured:
Assay in all cases: radiometric filter-binding kinase assay
AURKA (human) = AURKA (human) (UniProt O14965)
BRSK1 (human) = BRSK1 (human) (UniProt Q8TDC3)
BRSK2 (human) = BRSK2 (human) (UniProt Q8IWQ3)
CDK2 CCNA2 (human) = CDK2 CCNA2 (human) (UniProt P20248+P24941)
CLK2 (human) = CLK2 (human) (UniProt P49760)
CSK (human) = CSK (human) (UniProt P41240)
CSNK1D (human) = CSNK1D (human) (UniProt P48730)
EPHA4 (human) = EPHA4 (human) (UniProt P54764)
EPHB2 (human) = EPHB2 (human) (UniProt P29323)
FGFR1 (human) = FGFR1 (human) (UniProt P11362)
FLT1 (human) = FLT1 (human) (UniProt P17948)
INSR (human) = INSR (human) (UniProt P06213)
INSRR (human) = INSRR (human) (UniProt P14616)
IRAK4 (human) = IRAK4 (human) (UniProt Q9NWZ3)
JAK2 JH1 JH2 (human) = JAK2 JH1 JH2 (human) (UniProt O60674)
MAP2K2 (human) = MAP2K2 (human) (UniProt P36507)
MAP3K11 (human) = MAP3K11 (human) (UniProt Q16584)
MAP3K7 TAB1 (human) = MAP3K7 TAB1 (human) (UniProt Q15750+O43318)
MAPK12 (human) = MAPK12 (human) (UniProt P53778)
MAPK8 (human) = MAPK8 (human) (UniProt P45983)
MAPKAPK3 (human) = MAPKAPK3 (human) (UniProt Q16644)
MARK4 (human) = MARK4 (human) (UniProt Q96L34)
MELK (human) = MELK (human) (UniProt Q14680)
MYLK (human) = MYLK (human) (UniProt Q15746)
[1] = tested on: PAK2 (human), Q13177 [T402E]
PIM1 (human) = PIM1 (human) (UniProt P11309)
PIM3 (human) = PIM3 (human) (UniProt Q86V86)
PLK1 (human) = PLK1 (human) (UniProt P53350)
RIPK2 (human) = RIPK2 (human) (UniProt O43353)
RPS6KA3 KD1 KD2 (human) = RPS6KA3 KD1 KD2 (human) (UniProt P51812)
[2] = tested on: RPS6KB1 (human), P23443 [T412E]
[3] = tested on: SGK1 (human), O00141 [S422D]
SYK (human) = SYK (human) (UniProt P43405); conditions: compound 10.0 µM
TBK1 (human) = TBK1 (human) (UniProt Q9UHD2)
TTK (human) = TTK (human) (UniProt P33981)

Chain of MAP3K7 TAB1 (human) (O43318 whole entry, looked up): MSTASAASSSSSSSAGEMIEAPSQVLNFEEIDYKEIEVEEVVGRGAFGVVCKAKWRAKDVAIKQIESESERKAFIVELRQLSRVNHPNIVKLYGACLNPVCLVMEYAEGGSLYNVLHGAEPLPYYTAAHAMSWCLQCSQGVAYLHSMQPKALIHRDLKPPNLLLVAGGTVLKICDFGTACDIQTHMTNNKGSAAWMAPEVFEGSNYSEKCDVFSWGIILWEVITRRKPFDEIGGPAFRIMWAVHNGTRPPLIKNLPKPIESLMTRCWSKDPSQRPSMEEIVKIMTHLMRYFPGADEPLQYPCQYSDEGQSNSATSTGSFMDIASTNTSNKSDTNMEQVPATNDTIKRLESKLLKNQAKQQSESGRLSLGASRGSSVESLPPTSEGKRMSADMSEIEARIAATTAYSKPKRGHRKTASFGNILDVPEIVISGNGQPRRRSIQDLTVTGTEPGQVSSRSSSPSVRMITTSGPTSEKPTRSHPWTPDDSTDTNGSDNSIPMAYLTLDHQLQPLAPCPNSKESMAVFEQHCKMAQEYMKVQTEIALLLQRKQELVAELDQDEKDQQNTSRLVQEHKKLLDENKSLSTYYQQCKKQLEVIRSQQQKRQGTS
Chain of MAP3K7 TAB1 (human) (Q15750 whole entry, looked up): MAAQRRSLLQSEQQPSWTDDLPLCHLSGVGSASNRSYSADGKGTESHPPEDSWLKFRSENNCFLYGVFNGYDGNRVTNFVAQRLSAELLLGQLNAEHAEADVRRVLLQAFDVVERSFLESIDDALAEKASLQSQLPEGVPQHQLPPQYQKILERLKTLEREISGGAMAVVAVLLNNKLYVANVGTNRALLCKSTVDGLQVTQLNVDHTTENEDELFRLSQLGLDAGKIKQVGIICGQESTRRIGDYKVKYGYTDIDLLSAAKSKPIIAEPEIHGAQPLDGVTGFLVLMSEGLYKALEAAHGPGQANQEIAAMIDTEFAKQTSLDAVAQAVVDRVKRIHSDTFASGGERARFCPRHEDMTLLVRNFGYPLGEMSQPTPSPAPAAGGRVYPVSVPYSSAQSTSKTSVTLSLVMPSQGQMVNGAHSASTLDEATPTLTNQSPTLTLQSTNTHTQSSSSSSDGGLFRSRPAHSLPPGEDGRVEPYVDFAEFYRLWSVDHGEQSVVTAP
Chain of MAPK12 (human) (P53778 whole entry, looked up): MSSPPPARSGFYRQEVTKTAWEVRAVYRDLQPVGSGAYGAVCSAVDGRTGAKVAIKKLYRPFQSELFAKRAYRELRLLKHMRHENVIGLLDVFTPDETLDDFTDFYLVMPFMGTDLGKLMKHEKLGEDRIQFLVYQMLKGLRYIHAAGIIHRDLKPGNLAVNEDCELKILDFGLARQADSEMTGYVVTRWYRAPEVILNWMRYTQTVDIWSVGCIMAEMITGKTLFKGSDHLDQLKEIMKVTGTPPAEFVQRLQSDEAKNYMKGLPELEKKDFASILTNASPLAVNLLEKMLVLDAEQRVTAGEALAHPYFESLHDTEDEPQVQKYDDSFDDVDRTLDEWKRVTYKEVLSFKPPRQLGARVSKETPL
Chain of RPS6KB1 (human), P23443 [T412E] (P23443 whole entry T412E, looked up): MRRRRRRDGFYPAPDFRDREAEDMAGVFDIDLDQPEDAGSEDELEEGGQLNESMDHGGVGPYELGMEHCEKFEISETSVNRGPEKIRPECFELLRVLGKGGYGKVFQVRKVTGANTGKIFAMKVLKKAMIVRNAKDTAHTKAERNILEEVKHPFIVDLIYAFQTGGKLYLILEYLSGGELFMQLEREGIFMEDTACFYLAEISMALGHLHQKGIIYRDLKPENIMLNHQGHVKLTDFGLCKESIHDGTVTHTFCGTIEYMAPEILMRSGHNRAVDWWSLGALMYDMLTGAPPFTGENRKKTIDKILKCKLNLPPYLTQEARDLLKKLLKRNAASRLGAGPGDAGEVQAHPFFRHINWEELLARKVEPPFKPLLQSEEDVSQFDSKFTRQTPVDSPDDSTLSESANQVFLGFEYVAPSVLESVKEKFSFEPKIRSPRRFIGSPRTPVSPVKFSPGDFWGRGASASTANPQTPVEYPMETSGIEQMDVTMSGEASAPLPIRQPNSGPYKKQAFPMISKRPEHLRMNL
Chain of MELK (human) (Q14680 whole entry, looked up): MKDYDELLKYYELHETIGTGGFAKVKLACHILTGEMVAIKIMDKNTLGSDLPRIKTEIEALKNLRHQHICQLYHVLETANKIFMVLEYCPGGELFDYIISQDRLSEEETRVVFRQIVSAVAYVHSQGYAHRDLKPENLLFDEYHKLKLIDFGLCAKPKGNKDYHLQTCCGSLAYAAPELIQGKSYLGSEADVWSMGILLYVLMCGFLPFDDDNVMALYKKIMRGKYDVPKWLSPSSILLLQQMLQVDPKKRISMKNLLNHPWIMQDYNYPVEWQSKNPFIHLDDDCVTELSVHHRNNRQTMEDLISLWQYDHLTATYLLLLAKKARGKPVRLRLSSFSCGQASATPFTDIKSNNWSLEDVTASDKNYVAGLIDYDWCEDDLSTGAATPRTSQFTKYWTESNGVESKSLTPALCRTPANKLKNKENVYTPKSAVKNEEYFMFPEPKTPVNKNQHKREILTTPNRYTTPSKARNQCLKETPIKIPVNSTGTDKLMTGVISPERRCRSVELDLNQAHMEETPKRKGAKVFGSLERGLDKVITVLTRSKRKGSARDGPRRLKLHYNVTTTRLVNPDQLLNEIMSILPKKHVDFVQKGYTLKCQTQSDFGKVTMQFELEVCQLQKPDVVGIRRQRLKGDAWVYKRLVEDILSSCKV
Chain of JAK2 JH1 JH2 (human) (O60674 whole entry, looked up): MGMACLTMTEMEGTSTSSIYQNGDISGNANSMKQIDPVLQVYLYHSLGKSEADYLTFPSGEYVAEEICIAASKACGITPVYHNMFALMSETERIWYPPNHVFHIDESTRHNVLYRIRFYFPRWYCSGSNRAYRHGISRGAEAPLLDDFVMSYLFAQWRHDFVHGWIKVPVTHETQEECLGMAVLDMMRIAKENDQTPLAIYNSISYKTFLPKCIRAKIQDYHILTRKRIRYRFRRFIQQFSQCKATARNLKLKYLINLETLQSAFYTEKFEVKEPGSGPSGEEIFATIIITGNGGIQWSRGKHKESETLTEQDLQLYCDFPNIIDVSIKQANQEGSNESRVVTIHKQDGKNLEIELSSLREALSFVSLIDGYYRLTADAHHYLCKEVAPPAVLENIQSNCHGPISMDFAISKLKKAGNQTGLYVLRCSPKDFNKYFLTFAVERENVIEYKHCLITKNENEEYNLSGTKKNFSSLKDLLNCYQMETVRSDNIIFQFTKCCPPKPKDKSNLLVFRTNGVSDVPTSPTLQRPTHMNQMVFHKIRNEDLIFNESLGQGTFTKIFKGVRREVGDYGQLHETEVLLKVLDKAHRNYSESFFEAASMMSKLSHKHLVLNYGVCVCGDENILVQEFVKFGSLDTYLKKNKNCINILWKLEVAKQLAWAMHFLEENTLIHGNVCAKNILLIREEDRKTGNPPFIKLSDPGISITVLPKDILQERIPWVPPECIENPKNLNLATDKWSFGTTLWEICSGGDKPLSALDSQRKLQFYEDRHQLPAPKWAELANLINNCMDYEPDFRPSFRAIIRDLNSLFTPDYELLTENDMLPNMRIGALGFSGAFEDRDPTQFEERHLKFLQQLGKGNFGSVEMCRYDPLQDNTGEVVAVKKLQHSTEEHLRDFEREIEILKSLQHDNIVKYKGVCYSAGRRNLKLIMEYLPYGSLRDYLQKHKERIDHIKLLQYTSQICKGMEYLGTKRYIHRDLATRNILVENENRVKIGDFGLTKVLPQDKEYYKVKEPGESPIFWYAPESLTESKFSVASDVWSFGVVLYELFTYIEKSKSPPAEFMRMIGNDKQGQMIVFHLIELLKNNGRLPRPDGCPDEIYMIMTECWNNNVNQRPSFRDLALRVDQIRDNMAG
Chain of MAPKAPK3 (human) (Q16644 whole entry, looked up): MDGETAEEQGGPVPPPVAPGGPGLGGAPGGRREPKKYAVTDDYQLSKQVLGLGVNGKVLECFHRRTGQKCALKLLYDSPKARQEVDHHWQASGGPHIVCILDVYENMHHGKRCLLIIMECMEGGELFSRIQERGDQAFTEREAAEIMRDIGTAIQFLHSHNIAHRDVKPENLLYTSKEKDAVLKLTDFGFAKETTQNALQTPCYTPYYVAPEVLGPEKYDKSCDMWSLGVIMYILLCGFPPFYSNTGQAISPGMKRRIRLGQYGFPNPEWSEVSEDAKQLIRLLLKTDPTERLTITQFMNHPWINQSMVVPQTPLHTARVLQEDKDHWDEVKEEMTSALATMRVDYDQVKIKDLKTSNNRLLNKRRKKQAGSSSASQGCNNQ
Chain of IRAK4 (human) (Q9NWZ3 whole entry, looked up): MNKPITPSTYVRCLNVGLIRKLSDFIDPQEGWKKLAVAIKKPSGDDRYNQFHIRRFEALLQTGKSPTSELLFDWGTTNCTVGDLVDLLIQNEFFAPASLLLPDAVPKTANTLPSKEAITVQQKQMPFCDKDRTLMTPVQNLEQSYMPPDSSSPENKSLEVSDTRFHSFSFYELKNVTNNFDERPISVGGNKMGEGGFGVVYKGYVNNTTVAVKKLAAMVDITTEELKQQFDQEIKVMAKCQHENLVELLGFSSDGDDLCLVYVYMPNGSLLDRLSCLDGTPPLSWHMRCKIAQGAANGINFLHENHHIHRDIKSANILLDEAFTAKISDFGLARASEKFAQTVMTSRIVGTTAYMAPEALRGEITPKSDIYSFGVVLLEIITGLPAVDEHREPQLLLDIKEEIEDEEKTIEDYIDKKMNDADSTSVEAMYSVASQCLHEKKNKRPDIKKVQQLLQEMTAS

Compound: COc1cc(C(=O)N2CCOCC2)c(F)cc1Nc1ncc(C(F)(F)F)c(NC2CC2)n1
- residual activity (AURKA (human); compound 1.0 µM): 105%
- residual activity (AURKA (human); compound 10.0 µM): 81%
- residual activity (BRSK1 (human); compound 1.0 µM): 85%
- residual activity (BRSK1 (human); compound 10.0 µM): 69%
- residual activity (BRSK2 (human); compound 1.0 µM): 88%
- residual activity (BRSK2 (human); compound 10.0 µM): 51%
- residual activity (CDK2 CCNA2 (human); compound 1.0 µM): 94%
- residual activity (CDK2 CCNA2 (human); compound 10.0 µM): 72%
- residual activity (CLK2 (human); compound 1.0 µM): 36%
- residual activity (CLK2 (human); compound 10.0 µM): 5%
- residual activity (CSK (human); compound 1.0 µM): 102%
- residual activity (CSK (human); compound 10.0 µM): 101%
- residual activity (CSNK1D (human); compound 1.0 µM): 95%
- residual activity (CSNK1D (human); compound 10.0 µM): 67%
- residual activity (EPHA4 (human); compound 1.0 µM): 86%
- residual activity (EPHA4 (human); compound 10.0 µM): 98%
- residual activity (EPHB2 (human); compound 1.0 µM): 92%
- residual activity (EPHB2 (human); compound 10.0 µM): 97%
- residual activity (FGFR1 (human); compound 1.0 µM): 97%
- residual activity (FGFR1 (human); compound 10.0 µM): 104%
- residual activity (FLT1 (human); compound 1.0 µM): 55%
- residual activity (FLT1 (human); compound 10.0 µM): 14%
- residual activity (INSR (human); compound 1.0 µM): 50%
- residual activity (INSR (human); compound 10.0 µM): 3%
- residual activity (INSRR (human); compound 1.0 µM): 84%
- residual activity (INSRR (human); compound 10.0 µM): 67%
- residual activity (IRAK4 (human); compound 1.0 µM): 90%
- residual activity (IRAK4 (human); compound 10.0 µM): 93%
- residual activity (JAK2 JH1 JH2 (human); compound 1.0 µM): 79%
- residual activity (JAK2 JH1 JH2 (human); compound 10.0 µM): 52%
- residual activity (MAP2K2 (human); compound 1.0 µM): 118%
- residual activity (MAP2K2 (human); compound 10.0 µM): 98%
- residual activity (MAP3K11 (human); compound 1.0 µM): 35%
- residual activity (MAP3K11 (human); compound 10.0 µM): 9%
- residual activity (MAP3K7 TAB1 (human); compound 1.0 µM): 11%
- residual activity (MAP3K7 TAB1 (human); compound 10.0 µM): 2%
- residual activity (MAPK12 (human); compound 1.0 µM): 98%
- residual activity (MAPK12 (human); compound 10.0 µM): 96%
- residual activity (MAPK8 (human); compound 1.0 µM): 83%
- residual activity (MAPK8 (human); compound 10.0 µM): 47%
- residual activity (MAPKAPK3 (human); compound 1.0 µM): 108%
- residual activity (MAPKAPK3 (human); compound 10.0 µM): 124%
- residual activity (MARK4 (human); compound 1.0 µM): 95%
- residual activity (MARK4 (human); compound 10.0 µM): 52%
- residual activity (MELK (human); compound 1.0 µM): 91%
- residual activity (MELK (human); compound 10.0 µM): 39%
- residual activity (MYLK (human); compound 1.0 µM): 44%
- residual activity (MYLK (human); compound 10.0 µM): 8%
- residual activity ([1]; compound 1.0 µM): 89%
- residual activity ([1]; compound 10.0 µM): 88%
- residual activity (PIM1 (human); compound 1.0 µM): 101%
- residual activity (PIM1 (human); compound 10.0 µM): 94%
- residual activity (PIM3 (human); compound 1.0 µM): 101%
- residual activity (PIM3 (human); compound 10.0 µM): 78%
- residual activity (PLK1 (human); compound 1.0 µM): 78%
- residual activity (PLK1 (human); compound 10.0 µM): 40%
- residual activity (RIPK2 (human); compound 1.0 µM): 94%
- residual activity (RIPK2 (human); compound 10.0 µM): 79%
- residual activity (RPS6KA3 KD1 KD2 (human); compound 1.0 µM): 77%
- residual activity (RPS6KA3 KD1 KD2 (human); compound 10.0 µM): 25%
- residual activity ([2]; compound 1.0 µM): 89%
- residual activity ([2]; compound 10.0 µM): 68%
- residual activity ([3]; compound 1.0 µM): 88%
- residual activity ([3]; compound 10.0 µM): 70%
- residual activity (SYK (human)): 44%
- residual activity (TBK1 (human); compound 10.0 µM): 26%
- residual activity (TTK (human); compound 1.0 µM): 56%
- residual activity (TTK (human); compound 10.0 µM): 31%

Compound: Nc1cccc2c1CN(C1CCC(=O)NC1=O)C2=O (stereo not drawn)
- residual activity (AURKA (human); compound 1.0 µM): 113%
- residual activity (AURKA (human); compound 10.0 µM): 100%
- residual activity (BRSK1 (human); compound 1.0 µM): 84%
- residual activity (BRSK1 (human); compound 10.0 µM): 94%
- residual activity (BRSK2 (human); compound 1.0 µM): 98%
- residual activity (BRSK2 (human); compound 10.0 µM): 105%
- residual activity (CDK2 CCNA2 (human); compound 1.0 µM): 96%
- residual activity (CDK2 CCNA2 (human); compound 10.0 µM): 87%
- residual activity (CLK2 (human); compound 1.0 µM): 104%
- residual activity (CLK2 (human); compound 10.0 µM): 98%
- residual activity (CSK (human); compound 1.0 µM): 87%
- residual activity (CSK (human); compound 10.0 µM): 97%
- residual activity (CSNK1D (human); compound 1.0 µM): 102%
- residual activity (CSNK1D (human); compound 10.0 µM): 97%
- residual activity (EPHA4 (human); compound 1.0 µM): 110%
- residual activity (EPHA4 (human); compound 10.0 µM): 124%
- residual activity (EPHB2 (human); compound 1.0 µM): 107%
- residual activity (EPHB2 (human); compound 10.0 µM): 113%
- residual activity (FGFR1 (human); compound 10.0 µM): 109%
- residual activity (FLT1 (human); compound 1.0 µM): 100%
- residual activity (FLT1 (human); compound 10.0 µM): 110%
- residual activity (INSR (human); compound 10.0 µM): 107%
- residual activity (INSRR (human); compound 1.0 µM): 102%
- residual activity (INSRR (human); compound 10.0 µM): 109%
- residual activity (IRAK4 (human); compound 1.0 µM): 107%
- residual activity (IRAK4 (human); compound 10.0 µM): 110%
- residual activity (JAK2 JH1 JH2 (human); compound 1.0 µM): 103%
- residual activity (JAK2 JH1 JH2 (human); compound 10.0 µM): 93%
- residual activity (MAP2K2 (human); compound 1.0 µM): 83%
- residual activity (MAP2K2 (human); compound 10.0 µM): 81%
- residual activity (MAP3K11 (human); compound 1.0 µM): 92%
- residual activity (MAP3K11 (human); compound 10.0 µM): 98%
- residual activity (MAP3K7 TAB1 (human); compound 1.0 µM): 99%
- residual activity (MAP3K7 TAB1 (human); compound 10.0 µM): 104%
- residual activity (MAPK12 (human); compound 1.0 µM): 109%
- residual activity (MAPK12 (human); compound 10.0 µM): 108%
- residual activity (MAPK8 (human); compound 1.0 µM): 99%
- residual activity (MAPK8 (human); compound 10.0 µM): 106%
- residual activity (MAPKAPK3 (human); compound 1.0 µM): 94%
- residual activity (MAPKAPK3 (human); compound 10.0 µM): 86%
- residual activity (MARK4 (human); compound 10.0 µM): 90%
- residual activity (MELK (human); compound 1.0 µM): 94%
- residual activity (MELK (human); compound 10.0 µM): 90%
- residual activity (MYLK (human); compound 1.0 µM): 94%
- residual activity (MYLK (human); compound 10.0 µM): 94%
- residual activity ([1]; compound 1.0 µM): 101%
- residual activity ([1]; compound 10.0 µM): 103%
- residual activity (PIM1 (human); compound 1.0 µM): 93%
- residual activity (PIM1 (human); compound 10.0 µM): 87%
- residual activity (PIM3 (human); compound 1.0 µM): 101%
- residual activity (PIM3 (human); compound 10.0 µM): 103%
- residual activity (PLK1 (human); compound 1.0 µM): 104%
- residual activity (PLK1 (human); compound 10.0 µM): 96%
- residual activity (RIPK2 (human); compound 1.0 µM): 97%
- residual activity (RIPK2 (human); compound 10.0 µM): 106%
- residual activity (RPS6KA3 KD1 KD2 (human); compound 1.0 µM): 93%
- residual activity (RPS6KA3 KD1 KD2 (human); compound 10.0 µM): 101%
- residual activity ([2]; compound 1.0 µM): 94%
- residual activity ([2]; compound 10.0 µM): 93%
- residual activity ([3]; compound 1.0 µM): 91%
- residual activity (SYK (human)): 114%
- residual activity (TBK1 (human); compound 1.0 µM): 95%
- residual activity (TBK1 (human); compound 10.0 µM): 102%
- residual activity (TTK (human); compound 1.0 µM): 104%
- residual activity (TTK (human); compound 10.0 µM): 118%

Source: the kinase profiling compilation of Christmann-Franck et al. (2016)
